Where two headings read alike, the source gives them in different places.
What was measured:
[1] = test system: T3SS-mediated secretion of ExoS′-βLA fusion protein, P. aeruginosa strain MDM973; test: Effector-β-lactamase (ExoS′-βLA) secretion assay; type: cell-based, Pseudomonas aeruginosa; conditions: for IC50: Pseudomonas aeruginosa, read-out: Avg. Secretion IC50
Excerpt: Effector-β-Lactamase (βLA) Secretion Assays.
P. aeruginosa. A gene encoding an ExoS'-β-lactamase (βLA) fusion protein (comprised of 234 codons of P. aeruginosa effector ExoS fused to the TEM-1 β-lactamase gene lacking secretion signal codons) was constructed by splicing by overlap extension PCR (SOE-PCR) (Choi and Schweizer, 2005, BMC Microbiol., 5:30) using primers 5-10 (Table 3, above), sequence confirmed, cloned into lacI^Q-containing GATEWAY® vector pUCP24GW (see Moir, et al., 2007, J Biomol. Screen., 12:855-64) behind the lac promoter, and introduced into P. aeruginosa by electroporation (see Choi, et al., 2006, J. Microbiol. Methods, 64:391-7). Secretion of fusion proteins was detected by measuring the hydrolysis of the chromogenic β-lactamase substrate nitrocefin in clear 96-well microplates in a modification of a previously described assay (Lee, et al., 2007, Infect. Immun., 75:1089-98). Cells of strain MDM973 (PAK/pUCP24GW-exoS:blaM) were sub-cultured in the morning from overnight growths in LBG into 0.1 ml of LBGIE with or without test compounds and grown for 150 min. Nitrocefin (100 μg/ml final) was added, and A490 measurements taken every minute for 15 min in a Victor^3V 1420 Multilabel HTS Counter (PerkinElmer). Slopes were calculated as a relative measure of the quantity of the effector-βLA fusion protein secreted and were absolutely dependent on induction with IPTG, EGTA, and the presence of a functional pscC gene in the P. aeruginosa cells. Typical signal:background ratios were 6-10.

[2] = test system: T3SS-mediated cytotoxicity of translocated effector protein ExoU in CHO cells; test: Inhibition of P. aeruginosa ExoU-dependent CHO cell killing (translocation, LDH release); type: cell-based; conditions: Pseudomonas aeruginosa, read-out: Avg. Translocation IC50
Excerpt: Inhibition of P. aeruginosa ExoU-Dependent CHO Cell Killing.
Pseudolipasin, which acts by direct inhibition of the ExoU phospholipase, was used as control inhibitor (Lee, et al, 2007, Infect. Immun., 75:1089-98).

[3] = Determination of mammalian cytotoxicity (MTS); type: cell-based; conditions: human
Description: Determination of Mammalian Cytotoxicity.
See, Marshall, et al., 1995, A critical assessment of the use of microculture tetrazolium assays to measure cell growth and function, Growth Regul., 5:69-84. Briefly, 96-well plates were seeded with HeLa cells at a density of 4×10^3 per well in VP-SFM medium without serum (Frazzati-Gallina, et al., 2001, J. Biotechnol., 92:67-72), in the presence or absence of serial dilutions of a compound dissolved in DMSO. Following incubation for 3 days at 37° C. in VP-SFM, cell viability was measured with the vital tetrazolium salt stain 3-(4,5-dimethylthiazol-2-yl)-2,5 diphenyltetrazolium bromide according to the manufacturer's instructions (Promega, Madison, Wis.). Values were determined in duplicate using dilutions of inhibitory compound from 100 μM to 0.2 μM.

[4] = Table 4, HeLa cells, 3 days, dilutions from 100 μM to 0.2 μM, read-out: Avg. CC50

Row | SMILES | IC50 [1] | IC50 [2] | CC50 at 3 days [3, 4] | melting point | CC50 at 3 days [3] | IC50 values lower (T3SS secretion inhibition) ([1]; vs. MBX-1641) | effect of structural alteration on T3SS-mediated secretion inhibition ([1]; vs. MBX-1641)
1 | CC(Oc1ccc(Cl)cc1Cl)C(=O)NC(c1ccc(F)cc1)C1CC1 (stereo not drawn) [MBX-2614] | 1.5 µM | 8.4 µM | 12.8 µM | 109 °C | – | – | –
2 | CC(Oc1ccc(Cl)cc1Cl)C(=O)NC(C)(C)c1ccc(F)cc1 (stereo not drawn) [MBX-2616] | 8 µM | – | 16 µM | 105 °C | – | – | –
3 | CC(Oc1ccc(Cl)cc1Cl)C(=O)NCc1ccccc1F (stereo not drawn) [MBX-1962] | – | 8.2 µM | 32 µM | 121 °C | – | – | –
4 | CC(Oc1ccc(Cl)cc1Cl)C(=O)NC1(c2ccc(F)cc2)CC1 (stereo not drawn) [MBX-2666] | 5.3 µM | – | 100 µM | 134 °C | – | – | –
5 | C[C@@H](Oc1ccc(Cl)cc1Cl)C(=O)N[C@H](C)c1ccc(F)cc1 [MBX-2572] | – | > 100 µM | > 100 µM | – | – | – | –
6 | CC(Oc1ccc(Cl)cc1Cl)C(=O)NCc1ccc(Cl)cc1 (stereo not drawn) [MBX-1958] | – | 9.6 µM | 42 µM | 115 °C | – | – | –
7 | CC(Oc1ccc(Cl)cc1Cl)C(=O)NCc1cccc(Cl)c1 (stereo not drawn) [MBX-1957] | – | 5.4 µM | 72 µM | 140 °C | – | – | –
8 | CC(Oc1ccc(Cl)cc1Cl)C(=O)NCc1ccc2cc[nH]c2c1 (stereo not drawn) [MBX-2594] | 1.6 µM | 5.3 µM | 10.4 µM | 120 °C | – | – | –
9 | CC(Oc1ccc(Cl)cc1Cl)C(=O)NCc1ccc2occc2c1 (stereo not drawn) [MBX-2592] | 2.5 µM | > 100 µM | 44 µM | 125 °C | – | – | –
10 | CC(Oc1ccc(Cl)cc1Cl)C(=O)NCc1ccc2[nH]cnc2c1 (stereo not drawn) [MBX-2593] | 7 µM | 33 µM | – | 71 °C | > 100 µM | – | –
11 | CC(Oc1ccc(Cl)cc1Cl)C(=O)NCc1ccc(F)cc1 (stereo not drawn) [MBX-1642] | 8 µM | 15 µM | 41 µM | – | – | – | –
12 | CC(Oc1ccc(Cl)cc1Cl)C(=O)NCc1ccc2[nH]c(CCO)cc2c1 (stereo not drawn) [MBX-2626] | 5.4 µM | 9.2 µM | – | 157 °C | > 100 µM | – | –
13 | CC(Oc1ccc(Cl)cc1Cl)C(=O)NC1COc2cc(F)ccc21 (stereo not drawn) [MBX-2589] | 25 µM | > 100 µM | 36 µM | 134 °C | – | – | –
14 | CC(Oc1ncc(Cl)cc1Cl)C(=O)NCc1ccc2c(c1)OCO2 (stereo not drawn) [MBX-2155] | – | – | > 100 µM | 180 °C | – | – | –
15 | CC(Oc1ccc(Cl)cc1Cl)C(=O)NCc1ccc2c(c1)CCCO2 (stereo not drawn) [MBX-1997] | 7.3 µM | 9.2 µM | > 100 µM | 106 °C | – | – | –
16 | CC(Oc1ccc(Cl)cc1Cl)C(=O)NC(C)c1ccc(F)cc1 (stereo not drawn) [MBX-2221] | 4.6 µM | – | 32 µM | – | – | 34% | –
17 | CC(Oc1ccc(Cl)cc1Cl)C(=O)NCc1cccc(F)c1 (stereo not drawn) [MBX-1963] | – | 4.9 µM | 59 µM | 106 °C | – | – | –
18 | CC(Oc1ccc(Cl)cc1Cl)C(=O)NCc1ccc2c(ccn2C)c1 (stereo not drawn) [MBX-2591] | 4.1 µM | > 100 µM | 38 µM | 146 °C | – | – | –
19 | CC(Oc1ccc(Cl)cc1Cl)C(=O)NCc1ccc(F)cn1 (stereo not drawn) [MBX-2623] | 21 µM | – | 70 µM | 78 °C | – | – | –
20 | CC(Oc1ccc(Cl)cc1Cl)C(=O)NC(C#N)c1ccc(F)cc1 (stereo not drawn) [MBX-2627] | 5.9 µM | 11 µM | 26 µM | 112 °C | – | – | –
21 | COc1ccc(CNC(=O)C(C)Sc2ccc(Cl)cc2Cl)cc1OC (stereo not drawn) [MBX-2162] | 30.4 µM | > 100 µM | – | 112 °C | – | – | –
22 | CCCC(NC(=O)C(C)Oc1ccc(Cl)cc1Cl)c1ccc(F)cc1 (stereo not drawn) [MBX-2628] | 4.3 µM | – | 14 µM | 79 °C | – | – | –
23 | CCCCC(NC(=O)C(C)Oc1ccc(Cl)cc1Cl)c1ccc(F)cc1 (stereo not drawn) [MBX-2629] | 4.7 µM | – | 19 µM | 100 °C | – | – | –

Row | SMILES | IC50 [1] | IC50 [2] | CC50 at 3 days [3, 4] | melting point | CC50 at 3 days [3] | IC50 values lower (T3SS secretion inhibition) ([1]; vs. MBX-1641) | effect of structural alteration on T3SS-mediated secretion inhibition ([1]; vs. MBX-1641)
24 | CC(Oc1ccc(Cl)cc1Cl)C(=O)NCc1ccccc1 (stereo not drawn) [MBX-1939] | – | 7.5 µM | 54 µM | 121 °C | – | – | –
25 | COc1ccc(CNC(=O)C(C)Sc2ccc(Cl)cc2Cl)cc1 (stereo not drawn) [MBX-2163] | 8.3 µM | 12.2 µM | – | 89 °C | > 100 µM | – | –
26 | Cc1cccc(CNC(=O)C(C)Oc2ccc(Cl)cc2Cl)c1 (stereo not drawn) [MBX-1952] | – | 8 µM | 32 µM | 113 °C | – | – | –
27 | C[C@H](NC(=O)[C@@H](C)Oc1ccc(Cl)cc1Cl)c1ccc(F)cc1 [MBX-2573] | – | > 100 µM | > 100 µM | – | – | – | –
28 | CC(Oc1ccc(Cl)cc1Cl)C(=O)NCc1cc2ccccc2[nH]1 (stereo not drawn) [MBX-2624] | – | 16 µM | 9 µM | – | – | – | –
29 | CC(Oc1ccc(Cl)cc1Cl)C(=O)NCc1ccccc1N(C)C (stereo not drawn) [MBX-1959] | 18.6 µM | 60 µM | – | 85 °C | – | – | –
30 | CCC(NC(=O)C(C)Oc1ccc(Cl)cc1Cl)c1ccc(F)cc1 (stereo not drawn) [MBX-2608] | – | – | 11 µM | 95 °C | – | – | –
31 | Cc1c(-c2ccccc2)[nH]c2ccc(CNC(=O)C(C)Oc3ccc(Cl)cc3Cl)cc12 (stereo not drawn) [MBX-2600] | 9 µM | 83 µM | – | 68 °C | 24 µM | – | –
32 | CC(Oc1ccc(Cl)cc1Cl)C(=O)NC1CCc2cc(F)ccc21 (stereo not drawn) [MBX-2595] | 16 µM | > 100 µM | 35 µM | 135 °C | – | – | –
33 | CC(Oc1ccc(Cl)cc1Cl)C(=O)NC(C)(C)c1ccc2c(c1)OCO2 (stereo not drawn) [MBX-2220] | 2.9 µM | 15 µM | 64 µM | 105 °C | – | 29% | –
34 | COc1cc(OC)c(OC)cc1CNC(=O)C(C)Oc1ccc(Cl)cc1Cl (stereo not drawn) [MBX-2030] | 74.5 µM | > 100 µM | – | 142 °C | – | – | –
35 | COc1ccc(OC)c(CNC(=O)C(C)Oc2ccc(Cl)cc2Cl)c1 (stereo not drawn) [MBX-1947] | 34.8 µM | > 100 µM | – | 67 °C | – | – | –
36 | CC(Oc1ncc(Cl)cc1Cl)C(=O)NCc1ccc(F)cc1 (stereo not drawn) [MBX-2158] | 6.8 µM | 26.4 µM | > 100 µM | 129 °C | – | – | –
37 | CC(Oc1ccc(Cl)cc1Cl)C(=O)NC(c1ccc(F)cc1)C(C)C (stereo not drawn) [MBX-2617] | 2.1 µM | – | 9 µM | 107 °C | – | – | –
38 | CC(Oc1ccc(Cl)cc1Cl)C(=O)NCCc1c[nH]c2cc(F)ccc12 (stereo not drawn) [MBX-2613] | 12 µM | 10 µM | – | 114 °C | 7 µM | – | –
39 | CC(Oc1ccc(Cl)cc1Cl)C(=O)NC1CCCc2cc(F)ccc21 (stereo not drawn) [MBX-2601] | 35 µM | – | – | 82 °C | 40 µM | – | –
40 | COc1cccc(OC)c1CNC(=O)C(C)Oc1ccc(Cl)cc1Cl (stereo not drawn) [MBX-1950] | 53.3 µM | 5 µM | 22 µM | 122 °C | – | – | –
41 | CC(Oc1ccc(Cl)cc1Cl)C(=O)NCc1ccc2[nH]ccc2c1 (stereo not drawn) [MBX-2590] | 1.7 µM | – | – | 91 °C | 25 µM | – | –
42 | CC(Oc1ccc(Cl)cc1Cl)C(=O)NCc1ccc(N(C)C)cc1 (stereo not drawn) [MBX-1961] | 33 µM | 3.4 µM | 86 µM | 127 °C | – | – | –
43 | CC(Nc1ccc(Cl)cc1Cl)C(=O)NCc1ccc2c(c1)OCO2 (stereo not drawn) [MBX-2212] | 9.6 µM | 35.3 µM | – | – | 80 µM | – | adverse effect
44 | CC(Oc1ccc(Cl)cc1Cl)C(=O)NCc1ccc2c(c1)OCCCO2 (stereo not drawn) [MBX-1999] | 23.9 µM | > 100 µM | – | 115 °C | – | – | –
45 | CC(Oc1ccc(Cl)cc1Cl)C(=O)NC(c1ccc(F)cc1)C1CCC1 (stereo not drawn) [MBX-2615] | 2.2 µM | – | 26 µM | 103 °C | – | – | –
46 | CC(Oc1ccc(Cl)cc1Cl)C(=O)NCCc1ccc(F)cc1 (stereo not drawn) [MBX-2588] | 5.5 µM | 68 µM | 25 µM | 129 °C | – | – | –

— patent US20140219995A1, “INHIBITORS OF BACTERIAL TYPE III SECRETION SYSTEM” (priority 2011, published 2014)
